Experimental data as given in patent US7521444B2, “Compounds for the treatment of hepatitis C” (Bristol-Myers Squibb Company, priority 2007, dated 2009).

What was measured:
HCV NS5B = target: T1, HCV NS5B (Hepatitis C virus genotype 1b, UniProt Q9WMX2); test: HCV NS5B RdRp enzyme assay (standard or modified); assay type: biochemical; conditions: HCV NS5B RdRp genotype 1b enzyme; standard or modified assay not stated
T1 construct: The protein was expressed with an 18 amino acid C-terminal truncation to enhance the solubility; made in house; host or cells: E. coli BL21(DE3), pET21a
Protocol: HCV NS5B RdRp cloning, expression, and purification. The cDNA encoding the NS5B protein of HCV, genotype 1b, was cloned into the pET21a expression vector. The protein was expressed with an 18 amino acid C-terminal truncation to enhance the solubility. The E. coli competent cell line BL21(DE3) was used for expression of the protein. Cultures were grown at 37° C. for ˜4 hours until the cultures reached an optical density of 2.0 at 600 nm. The cultures were cooled to 20° C. and induced with 1 mM IPTG. Fresh ampicillin was added to a final concentration of 50 μg/ml and the cells were grown overnight at 20° C.
Cell pellets (3 L) were lysed for purification to yield 15-24 mgs of purified NS5B. The lysis buffer consisted of 20 mM Tris-HCl, pH 7.4, 500 mM NaCl, 0.5% triton X-100, 1 mM DTT, 1 mM EDTA, 20% glycerol, 0.5 mg/ml lysozyme, 10 mM MgCl2, 15 ug/ml deoxyribonuclease I, and Complete TM protease inhibitor tablets (Roche). After addition of the lysis buffer, frozen cell pellets were resuspended using a tissue homogenizer. To reduce the viscosity of the sample, aliquots of the lysate were sonicated on ice using a microtip attached to a Branson sonicator. The sonicated lysate was centrifuged at 100,000×g for 1 hr at 4° C. and filtered through a 0.2 μm filter unit (Corning).
The protein was purified using two sequential chromatography steps: Heparin sepharose CL-6B and polyU sepharose 4B (Pharmacia). The chromatography buffers were identical to the lysis buffer but contained no lysozyme, deoxyribonuclease I, MgCl2 or protease inhibitor and the NaCl concentration of the buffer was adjusted according to the requirements for charging the protein onto the column. Each column was eluted with a NaCl gradient which varied in length from 5-50 column volumes depending on the column type. After the final chromatography step, the resulting purity of the enzyme is >90% based on SDS-PAGE analysis. The enzyme was aliquoted and stored at −80° C.
Standard HCV NS5B RdRp enzyme assay. HCV RdRp genotype 1b assays were run in a final volume of 60 μl in 96 well plates (Corning 3600). The assay buffer is composed of 20 mM Hepes, pH 7.5, 2.5 mM KCl, 2.5 mM MgCl2, 1 mM DTT, 1.6 U RNAse inhibitor (Promega N2515), 0.01 mg/ml BSA (Sigma B6917), and 2% glycerol. All compounds were serially diluted (3-fold) in DMSO and diluted further in water such that the final concentration of DMSO in the assay was 2%. HCV RdRp genotype 1b enzyme was used at a final concentration of 28 nM. A polyA template was used at 6 nM, and a biotinylated oligo-dT12 primer was used at 180 nM final concentration. Template was obtained commercially (Amersham 27-4110). Biotinylated primer was prepared by Sigma Genosys. 3H-UTP was used at 0.6 μCi (0.29 μM total UTP). Reactions were initiated by the addition of enzyme, incubated at 30° C. for 60 min, and stopped by adding 25 μl of 50 mM EDTA containing SPA beads (4 μg/μl, Amersham RPNQ 0007). Plates were read on a Packard Top Count NXT after >1 hr incubation at room temperature.
Modified HCV NS5B RdRp enzyme assay. A modified enzyme assay was performed essentially as described for the standard enzyme assay except for the following: The biotinylated oligo dT12 primer was precaptured on streptavidin-coated SPA beads by mixing primer and beads in assay buffer and incubating at room temperature for one hour. Unbound primer was removed after centrifugation. The primer-bound beads were resuspended in 20 mM Hepes buffer, pH 7.5 and used in the assay at final concentrations of 20 nM primer and 0.67 μg/μl beads. Order of addition in the assay: enzyme (1.75 nM) was added to diluted compound followed by the addition of a mixture of template (0.36 nM), 3H-UTP (0.6 μCi, 0.29 μM), and primer-bound beads, to initiate the reaction; concentrations given are final. Reactions were allowed to proceed for 4 hours at 30° C.
IC50 values for compounds were determined using seven different [I]. […]

HCV replicon cells = test: HCV replicon FRET / luciferase assay; assay type: cell-based; conditions: 50% reduction in FRET or luciferase activity
Protocol: FRET Assay Preparation. The HCV FRET screening assay was performed in 96-well cell culture plates. The FRET peptide (Anaspec, Inc.) (Taliani et al., Anal. Biochem. 1996, 240, 60-67) contains a fluorescence donor, EDANS, near one end of the peptide and an acceptor, DABCYL, near the other end. The fluorescence of the peptide is quenched by […] resonance energy transfer (RET) between the donor and the acceptor, but as the NS3 protease cleaves the peptide the products are released from RET quenching and the fluorescence of the donor becomes apparent. The assay reagent was made as follows: 5× cell Luciferase cell culture lysis reagent from Promega (#E153A) diluted to 1× with dH2O, NaCl added to 150 mM final, the FRET peptide diluted to 20 μM final from a 2 mM stock.
To prepare plates, HCV replicon cells, with or without a Renilla luciferase reporter gene, were trypsinized and plated in a 96-well plate with titrated test compounds added in columns 3 through 12; columns 1 and 2 contained a control compound (HCV control inhibitor), and the bottom row contained cells with DMSO only. The plates were then placed in a CO2 incubator at 37° C.
Assays. Subsequent to addition of the test compounds described above (FRET Assay Preparation), at various times the plate was removed and Alamar blue solution (Trek Diagnostics, #00-100) was added to measure cellular toxicity. After reading in a Cytoflour 4000 instrument (PE Biosystems), plates were rinsed with PBS and then used for FRET assay by the addition of 30 ul of the FRET peptide assay reagent described above (FRET Assay Preparation) per well. The plate was then placed into the Cytoflour 4000 instrument which had been set to 340 excite/490 emission, automatic mode for up to 20 cycles and the plate read in a kinetic mode. Typically, the signal to noise using an endpoint analysis after the reads was at least three-fold. Alternatively, after Alamar blue reading, plates were rinsed with PBS, then used for luciferase assay using the Promega Dual-Glo Luciferase Assay System or the Promega EnduRen Live Cell Substrate assay.
Compound analysis was performed by quantification of the relative HCV replicon inhibition and the relative cytotoxicity values. To calculate cytoxicity values, the average Alamar Blue fluorescence signals from the control wells were set as 100% non-toxic. The individual signals in each of the compound test wells were then divided by the average control signal and multiplied by 100% to determine […]. To calculate the HCV replicon inhibition values, an average background value was obtained from the two wells containing the highest amount of HCV control inhibitor at the end of the assay period. These numbers were similar to those obtained from naïve Huh-7 cells. The background numbers were then subtracted from the average signal obtained from the control wells and this number was used as 100% activity. The individual signals in each of the compound test wells were then divided by the averaged control values after background subtraction and multiplied by 100% to determine percent activity. EC50 values were calculated as the concentration which caused a 50% reduction in FRET or luciferase activity. The two numbers generated for the compound plate, percent cytoxicity and percent activity, were used to determine compounds of interest for further analysis.

T1 sequence (Q9WMX2 2420-2992): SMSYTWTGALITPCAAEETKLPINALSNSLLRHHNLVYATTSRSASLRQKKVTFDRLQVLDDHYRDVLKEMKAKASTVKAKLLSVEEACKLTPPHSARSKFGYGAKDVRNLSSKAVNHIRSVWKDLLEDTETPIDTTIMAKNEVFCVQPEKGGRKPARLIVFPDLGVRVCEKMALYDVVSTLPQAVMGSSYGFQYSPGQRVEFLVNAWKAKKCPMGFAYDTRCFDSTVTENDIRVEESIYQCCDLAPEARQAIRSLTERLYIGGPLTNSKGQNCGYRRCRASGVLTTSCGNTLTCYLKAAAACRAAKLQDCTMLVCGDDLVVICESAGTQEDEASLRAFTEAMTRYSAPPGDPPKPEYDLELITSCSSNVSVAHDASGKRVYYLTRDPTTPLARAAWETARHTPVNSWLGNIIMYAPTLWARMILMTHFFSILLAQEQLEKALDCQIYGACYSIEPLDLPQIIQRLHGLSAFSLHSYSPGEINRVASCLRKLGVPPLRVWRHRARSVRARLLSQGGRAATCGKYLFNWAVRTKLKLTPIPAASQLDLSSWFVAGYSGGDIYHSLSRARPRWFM

| SMILES | IC50 (HCV NS5B) [nM] | EC50 (HCV replicon cells; Hepatitis C virus) [nM] | EC50 (HCV replicon cells) [nM] |
| --- | --- | --- | --- |
| COc1ccc2c(c1)C1CC1(C(=O)N1CC3CN(C(=O)OC(C)(C)C)CC3C1)Cn1c-2c(C2CCCCC2)c2ccc(C(=O)NS(=O)(=O)N(C)C)cc21 (stereo not shown) | 4.58 to 500 | 4.58 to 500 |  |
| COc1ccc2c(c1)C1CC1(C(=O)N1CC3CCCN(C(=O)OC(C)(C)C)C3C1)Cn1c-2c(C2CCCCC2)c2ccc(C(=O)NS(=O)(=O)C3CC3)cc21 (stereo not shown) | 4.58 to 500 | 4.58 to 500 |  |
| COc1ccc2c(c1)C1CC1(C(=O)N1CCN3CCCC3C1)Cn1c-2c(C2CCCCC2)c2ccc(C(=O)NS(=O)(=O)N3CCC3)cc21 (stereo not shown) | 4.58 to 500 | 4.58 to 500 |  |
| COc1ccc2c(c1)C1CC1(C(=O)N1CCN3CCC[C@H]3C1)Cn1c-2c(C2CCCCC2)c2ccc(C(=O)NS(C)(=O)=O)cc21 (stereo partly shown) | 4.58 to 500 | 4.58 to 500 |  |
| COc1ccc2c(c1)C1CC1(C(=O)N1CCN3CCC[C@H]3C1)Cn1c-2c(C2CCCCC2)c2ccc(C(=O)NS(=O)(=O)N3CCOCC3)cc21 (stereo partly shown) | 4.58 to 500 | 4.58 to 500 |  |
| COc1ccc2c(c1)C1CC1(C(=O)N1CCN3CCC[C@H]3C1)Cn1c-2c(C2CCCCC2)c2ccc(C(=O)NS(=O)(=O)C3CC3)cc21 (stereo partly shown) | 4.58 to 500 | 4.58 to 500 |  |
| COc1ccc2c(c1)C1CC1(C(=O)N1CCN3CCC[C@@H]3C1)Cn1c-2c(C2CCCCC2)c2ccc(C(=O)NS(C)(=O)=O)cc21 (stereo partly shown) | 4.58 to 500 | 4.58 to 500 |  |
| COc1ccc2c(c1)C1CC1(C(=O)N1CCN3CCC[C@@H]3C1)Cn1c-2c(C2CCCCC2)c2ccc(C(=O)NS(=O)(=O)N3CCOCC3)cc21 (stereo partly shown) | 4.58 to 500 | 4.58 to 500 |  |
| COc1ccc2c(c1)C1CC1(C(=O)N1CCN3CCC[C@@H]3C1)Cn1c-2c(C2CCCCC2)c2ccc(C(=O)NS(=O)(=O)C3CC3)cc21 (stereo partly shown) | 4.58 to 500 | 4.58 to 500 |  |
| COc1ccc2c(c1)C1CC1(C(=O)N1CC3CCCNC3C1)Cn1c-2c(C2CCCCC2)c2ccc(C(=O)NS(=O)(=O)C3CC3)cc21 (stereo not shown) | 4.58 to 500 | 4.58 to 500 |  |
| COc1ccc2c(c1)C1CC1(C(=O)N1CC3CNCC3C1)Cn1c-2c(C2CCCCC2)c2ccc(C(=O)NS(=O)(=O)C3CC3)cc21 (stereo not shown) | 4.58 to 500 | > 1000 |  |
| COc1ccc2c(c1)C1CC1(C(=O)N1CCN3CCC[C@@H]3C1)Cn1c-2c(C2CCCCC2)c2ccc(C(=O)NS(=O)(=O)N3CCC3)cc21 (stereo partly shown) | 4.58 to 500 | 4.58 to 500 |  |
| COc1ccc2c(c1)C1CC1(C(=O)N1CCN3CCC[C@H]3C1)Cn1c-2c(C2CCCCC2)c2ccc(C(=O)NS(=O)(=O)N3CCC3)cc21 (stereo partly shown) | 4.58 to 500 | 4.58 to 500 |  |
| COc1ccc2c(c1)[C@@H]1C[C@]1(C(=O)N1CCN3CCC[C@H]3C1)Cn1c-2c(C2CCCCC2)c2ccc(C(=O)NS(=O)(=O)N(C)C)cc21 | 4.58 to 500 | 4.58 to 500 |  |
| COc1ccc2c(c1)[C@@H]1C[C@]1(C(=O)N1CCN3CCC[C@@H]3C1)Cn1c-2c(C2CCCCC2)c2ccc(C(=O)NS(=O)(=O)N(C)C)cc21 | 4.58 to 500 | 4.58 to 500 |  |
| COc1ccc2c(c1)C1CC1(C(=O)N1CC3CCCN(C)C3C1)Cn1c-2c(C2CCCCC2)c2ccc(C(=O)NS(=O)(=O)C3CC3)cc21 (stereo not shown) | 4.58 to 500 | 4.58 to 500 |  |
| COc1ccc2c(c1)C1CC1(C(=O)N1CC3CN(C)CC3C1)Cn1c-2c(C2CCCCC2)c2ccc(C(=O)NS(=O)(=O)C3CC3)cc21 (stereo not shown) | 4.58 to 500 | 4.58 to 500 |  |
| COc1ccc2c(c1)C1CC1(C(=O)N1CC3CN(C(C)=O)CC3C1)Cn1c-2c(C2CCCCC2)c2ccc(C(=O)NS(=O)(=O)N(C)C)cc21 (stereo not shown) | 4.58 to 500 | 4.58 to 500 |  |
| COc1ccc2c(c1)C1CC1(C(=O)N1CC3CN(C(C)=O)CC3C1)Cn1c-2c(C2CCCCC2)c2ccc(C(=O)NS(=O)(=O)C3CC3)cc21 (stereo not shown) | 4.58 to 500 | 4.58 to 500 |  |
| COc1ccc2c(c1)C1CC1(C(=O)N1CC3CCCN(C(=O)OC(C)(C)C)C3C1)Cn1c-2c(C2CCCCC2)c2ccc(C(=O)NS(=O)(=O)N(C)C)cc21 (stereo not shown) [drawing 20] | 4.58 to 500 |  | 4.58 to 500 |
| COc1ccc2c(c1)C1CC1(C(=O)N1CC3CCCN(C(=O)OC(C)(C)C)C3C1)Cn1c-2c(C2CCCCC2)c2ccc(C(=O)NS(=O)(=O)N(C)C)cc21 (stereo not shown) [drawing 24] | 4.58 to 500 | 4.58 to 500 |  |
| COc1ccc2c(c1)C1CC1(C(=O)N1CC3CCCN(C(C)=O)C3C1)Cn1c-2c(C2CCCCC2)c2ccc(C(=O)NS(=O)(=O)N(C)C)cc21 (stereo not shown) [drawing 34] | 4.58 to 500 | 4.58 to 500 |  |
| COc1ccc2c(c1)C1CC1(C(=O)N1CC3CCCN(C(C)=O)C3C1)Cn1c-2c(C2CCCCC2)c2ccc(C(=O)NS(=O)(=O)N(C)C)cc21 (stereo not shown) [drawing 36] | 4.58 to 500 |  | 4.58 to 500 |
| COc1ccc2c(c1)C1CC1(C(=O)N1CC3CCCN(C(C)=O)C3C1)Cn1c-2c(C2CCCCC2)c2ccc(C(=O)NS(=O)(=O)C3CC3)cc21 (stereo not shown) [drawing 67] | 4.58 to 500 | 4.58 to 500 |  |
| COc1ccc2c(c1)C1CC1(C(=O)N1CC3CCCN(C(C)=O)C3C1)Cn1c-2c(C2CCCCC2)c2ccc(C(=O)NS(=O)(=O)C3CC3)cc21 (stereo not shown) [drawing 68] | 4.58 to 500 |  | 4.58 to 500 |
| COc1ccc2c(c1)[C@@H]1C[C@]1(C(=O)N1CC3CCCN(C(C)=O)C3C1)Cn1c-2c(C2CCCCC2)c2ccc(C(=O)NS(=O)(=O)N(C)C)cc21 (stereo partly shown) [drawing 72] | 4.58 to 500 | 4.58 to 500 |  |
